Measured values published in patent publication US20260183295A1, “METHODS AND COMPOSITIONS FOR TREATING CANCER” (Onconova Therapeutics, Inc., priority 2022, published 2026).

Columns and labels:
Assay in all cases: CETSA-MS, MDA-MB-231 intact cells
Type in all cases: cell-based
Settings in all cases: 2 μM and 20 μM
CHEK1 = target: T1, CHEK1 (Homo sapiens, UniProt O14757)
T1 construct: endogenous in cells; host or cells: MDA-MB-231
T1 sequence (O14757 1-476): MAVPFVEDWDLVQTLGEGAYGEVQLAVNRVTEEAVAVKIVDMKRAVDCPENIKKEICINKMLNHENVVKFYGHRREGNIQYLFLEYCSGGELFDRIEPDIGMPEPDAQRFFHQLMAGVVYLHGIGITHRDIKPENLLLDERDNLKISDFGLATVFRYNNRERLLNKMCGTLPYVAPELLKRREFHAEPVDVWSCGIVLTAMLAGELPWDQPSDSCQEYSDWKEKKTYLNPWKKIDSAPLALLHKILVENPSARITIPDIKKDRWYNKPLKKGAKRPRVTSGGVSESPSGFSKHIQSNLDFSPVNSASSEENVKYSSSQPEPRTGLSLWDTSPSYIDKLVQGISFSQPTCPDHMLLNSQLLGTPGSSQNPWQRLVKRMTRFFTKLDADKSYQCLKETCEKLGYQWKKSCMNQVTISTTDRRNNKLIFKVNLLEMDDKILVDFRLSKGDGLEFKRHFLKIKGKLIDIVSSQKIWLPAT
Description: (§1) TNBC MDA-MB-231 cells were grown at 37° C. in 5% CO2 and suspended in warm media and split into 4 equal volumes. […] Cells were incubated and then pelleted. Following pelleting, the cells were washed, resuspended, and heated in a thermal gradient. Following heating, the samples were flash frozen and lysed in lysis buffer, agitated by vortex, and sonicated prior to centrifugation. The supernatant was collected and denaturation buffer added. Cold acetone was then added to the cell samples, and protein collected by centrifugation. Pellets were then washed twice with cold acetone and the washed pellets prior to labeling.
(§2) The intact cell protein samples and lysate protein samples were then digested and labeled for mass spectrometry analysis according to the manufacturer's recommended protocols. Digested and labeled protein samples were analyzed by mass spectrometry proteomic analysis and the resulting protein targets were analyzed and plotted.

HNRNPA1 = target: T2, HNRNPA1 (Homo sapiens, UniProt P09651)
T2 construct: 148 targets unique to Compound 1 in MDA-MB-231 intact cells; endogenous in cells; host or cells: MDA-MB-231
Description: as §1, §2

AHCTF1 = target: T3, AHCTF1 (Homo sapiens, UniProt Q8WYP5)
T3 construct: endogenous in cells; host or cells: MDA-MB-231
Description: as §1, §2

MAN2A1 = target: T4, MAN2A1 (Homo sapiens, UniProt Q16706)
T4 construct: endogenous in cells; host or cells: MDA-MB-231
Description: as §1, §2

DDX21 = target: T5, DDX21 (Homo sapiens, UniProt Q9NR30)
T5 construct: 148 targets unique to Compound 1 in MDA-MB-231 intact cells; endogenous in cells; host or cells: MDA-MB-231
Description: as §1, §2

RBM34 = target: T6, RBM34 (Homo sapiens, UniProt P42696)
T6 construct: endogenous in cells; host or cells: MDA-MB-231
Description: as §1, §2

GCAT = target: T7, GCAT (Homo sapiens, UniProt O75600)
T7 construct: 148 targets unique to Compound 1 in MDA-MB-231 intact cells; endogenous in cells; host or cells: MDA-MB-231
Description: as §1, §2

SND1 = target: T8, SND1 (Homo sapiens, UniProt Q7KZF4)
T8 construct: endogenous in cells; host or cells: MDA-MB-231
Description: as §1, §2

ESYT1 = target: T9, ESYT1 (Homo sapiens, UniProt Q9BSJ8)
T9 construct: 148 targets unique to Compound 1 in MDA-MB-231 intact cells; endogenous in cells; host or cells: MDA-MB-231
Description: as §1, §2

GSK3A = target: T10, GSK3A (Homo sapiens, UniProt P49840)
T10 construct: endogenous in cells; host or cells: MDA-MB-231
Description: as §1, §2

LRRC59 = target: T11, LRRC59 (Homo sapiens, UniProt Q96AG4)
T11 construct: endogenous in cells; host or cells: MDA-MB-231
Description: as §1, §2

PHF8 = target: T12, PHF8 (Homo sapiens, UniProt Q9UPP1)
T12 construct: endogenous in cells; host or cells: MDA-MB-231
Description: as §1, §2

RNF5 = target: T13, RNF5 (Homo sapiens, UniProt Q99942)
T13 construct: endogenous in cells; host or cells: MDA-MB-231
Description: as §1, §2

LYN = target: T14, LYN (Homo sapiens, UniProt P07948)
T14 construct: endogenous in cells; host or cells: MDA-MB-231
Description: as §1, §2

IGFBP4 = target: T15, IGFBP4 (Homo sapiens, UniProt P22692)
T15 construct: endogenous in cells; host or cells: MDA-MB-231
Description: as §1, §2

HNRNPU = tested on: HNRNPU
Description: as §1, §2

ILF3 = target: T16, ILF3 (Homo sapiens, UniProt Q12906)
T16 construct: endogenous in cells; host or cells: MDA-MB-231
Description: as §1, §2

SGPP1 = target: T17, SGPP1 (Homo sapiens, UniProt Q9BX95)
T17 construct: endogenous in cells; host or cells: MDA-MB-231
Description: as §1, §2

MAP2K5 = target: T18, MAP2K5 (Homo sapiens, UniProt Q13163)
T18 construct: endogenous in cells; host or cells: MDA-MB-231
Description: as §1, §2

LAMA5 = target: T19, LAMA5 (Homo sapiens, UniProt O15230)
T19 construct: endogenous in cells; host or cells: MDA-MB-231
Description: as §1, §2

DBNDD2 = target: T20, DBNDD2 (Homo sapiens, UniProt Q9BQY9)
T20 construct: 148 targets unique to Compound 1 in MDA-MB-231 intact cells; endogenous in cells; host or cells: MDA-MB-231
Description: as §1, §2

ADAR = target: T21, ADAR (Homo sapiens, UniProt P55265)
T21 construct: endogenous in cells; host or cells: MDA-MB-231
Description: as §1, §2

CDK7 = target: T22, CDK7 (Homo sapiens, UniProt P50613)
T22 construct: endogenous in cells; host or cells: MDA-MB-231
Description: as §1, §2

DHX9 = target: T23, DHX9 (Homo sapiens, UniProt Q08211)
T23 construct: 148 targets unique to Compound 1 in MDA-MB-231 intact cells; endogenous in cells; host or cells: MDA-MB-231
Description: as §1, §2

GALNT7 = target: T24, GALNT7 (Homo sapiens, UniProt Q86SF2)
T24 construct: 148 targets unique to Compound 1 in MDA-MB-231 intact cells; endogenous in cells; host or cells: MDA-MB-231
Description: as §1, §2

ELAVL1 = target: T25, ELAVL1 (Homo sapiens, UniProt Q15717)
T25 construct: 148 targets unique to Compound 1 in MDA-MB-231 intact cells; endogenous in cells; host or cells: MDA-MB-231
Description: as §1, §2

SMAD1 = target: T26, SMAD1 (Homo sapiens, UniProt Q15797)
T26 construct: endogenous in cells; host or cells: MDA-MB-231
Description: as §1, §2

CLPP = target: T27, CLPP (Homo sapiens, UniProt Q16740)
T27 construct: endogenous in cells; host or cells: MDA-MB-231
Description: as §1, §2

SYNCRIP = target: T28, SYNCRIP (Homo sapiens, UniProt O60506)
T28 construct: endogenous in cells; host or cells: MDA-MB-231
Description: as §1, §2

RAE1 = target: T29, RAE1 (Homo sapiens, UniProt P78406)
T29 construct: endogenous in cells; host or cells: MDA-MB-231
Description: as §1, §2

Measured: Group (CETSA-MS thermal shift)

T25 sequence (Q15717 whole entry): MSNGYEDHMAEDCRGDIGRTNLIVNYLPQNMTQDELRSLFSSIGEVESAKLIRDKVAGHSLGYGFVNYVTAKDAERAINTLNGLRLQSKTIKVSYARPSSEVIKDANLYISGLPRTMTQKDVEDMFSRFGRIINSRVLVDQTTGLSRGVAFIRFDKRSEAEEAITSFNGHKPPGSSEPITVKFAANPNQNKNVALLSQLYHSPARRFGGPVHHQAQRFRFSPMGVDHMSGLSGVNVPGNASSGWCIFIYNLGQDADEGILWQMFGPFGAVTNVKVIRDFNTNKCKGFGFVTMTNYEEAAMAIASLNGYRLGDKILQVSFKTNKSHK
T16 sequence (Q12906 whole entry): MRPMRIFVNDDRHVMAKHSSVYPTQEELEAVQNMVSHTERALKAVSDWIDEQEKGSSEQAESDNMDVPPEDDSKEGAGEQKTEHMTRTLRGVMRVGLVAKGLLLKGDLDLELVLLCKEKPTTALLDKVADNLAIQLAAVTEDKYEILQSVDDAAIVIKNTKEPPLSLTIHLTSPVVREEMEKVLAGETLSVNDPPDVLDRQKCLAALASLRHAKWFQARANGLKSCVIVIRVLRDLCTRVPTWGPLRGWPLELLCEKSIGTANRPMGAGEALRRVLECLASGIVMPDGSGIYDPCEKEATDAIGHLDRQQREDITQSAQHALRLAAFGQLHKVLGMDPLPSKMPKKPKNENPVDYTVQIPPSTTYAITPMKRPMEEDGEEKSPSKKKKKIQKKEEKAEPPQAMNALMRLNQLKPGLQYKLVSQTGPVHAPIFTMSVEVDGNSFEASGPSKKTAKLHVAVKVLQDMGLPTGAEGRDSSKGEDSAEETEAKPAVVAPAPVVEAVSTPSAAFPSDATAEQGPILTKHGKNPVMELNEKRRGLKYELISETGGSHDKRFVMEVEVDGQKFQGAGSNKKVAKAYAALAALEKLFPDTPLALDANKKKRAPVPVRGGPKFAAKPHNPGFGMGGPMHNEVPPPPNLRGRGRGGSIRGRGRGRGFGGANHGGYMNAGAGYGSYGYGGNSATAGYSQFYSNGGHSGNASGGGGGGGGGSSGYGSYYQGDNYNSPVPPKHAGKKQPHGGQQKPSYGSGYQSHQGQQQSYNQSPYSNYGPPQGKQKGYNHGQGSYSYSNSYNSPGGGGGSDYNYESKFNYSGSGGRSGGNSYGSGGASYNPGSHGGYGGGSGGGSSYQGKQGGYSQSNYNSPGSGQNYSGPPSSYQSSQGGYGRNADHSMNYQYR
T28 sequence (O60506 whole entry): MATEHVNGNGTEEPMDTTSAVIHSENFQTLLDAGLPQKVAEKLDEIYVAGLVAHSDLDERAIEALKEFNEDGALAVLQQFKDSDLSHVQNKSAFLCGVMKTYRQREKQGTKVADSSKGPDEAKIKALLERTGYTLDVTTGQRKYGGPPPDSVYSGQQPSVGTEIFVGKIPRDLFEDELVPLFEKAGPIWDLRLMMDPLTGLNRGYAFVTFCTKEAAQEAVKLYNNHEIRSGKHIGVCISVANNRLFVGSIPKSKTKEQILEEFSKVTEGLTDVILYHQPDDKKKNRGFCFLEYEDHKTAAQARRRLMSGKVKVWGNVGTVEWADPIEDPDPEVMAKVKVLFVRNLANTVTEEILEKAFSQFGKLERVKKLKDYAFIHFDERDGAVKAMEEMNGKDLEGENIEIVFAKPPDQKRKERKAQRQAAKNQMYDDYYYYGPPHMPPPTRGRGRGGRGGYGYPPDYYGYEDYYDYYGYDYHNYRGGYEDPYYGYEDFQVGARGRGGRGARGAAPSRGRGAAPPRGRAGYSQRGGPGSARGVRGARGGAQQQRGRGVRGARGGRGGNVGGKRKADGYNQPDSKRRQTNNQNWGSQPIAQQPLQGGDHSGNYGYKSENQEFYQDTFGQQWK
T4 sequence (Q16706 whole entry): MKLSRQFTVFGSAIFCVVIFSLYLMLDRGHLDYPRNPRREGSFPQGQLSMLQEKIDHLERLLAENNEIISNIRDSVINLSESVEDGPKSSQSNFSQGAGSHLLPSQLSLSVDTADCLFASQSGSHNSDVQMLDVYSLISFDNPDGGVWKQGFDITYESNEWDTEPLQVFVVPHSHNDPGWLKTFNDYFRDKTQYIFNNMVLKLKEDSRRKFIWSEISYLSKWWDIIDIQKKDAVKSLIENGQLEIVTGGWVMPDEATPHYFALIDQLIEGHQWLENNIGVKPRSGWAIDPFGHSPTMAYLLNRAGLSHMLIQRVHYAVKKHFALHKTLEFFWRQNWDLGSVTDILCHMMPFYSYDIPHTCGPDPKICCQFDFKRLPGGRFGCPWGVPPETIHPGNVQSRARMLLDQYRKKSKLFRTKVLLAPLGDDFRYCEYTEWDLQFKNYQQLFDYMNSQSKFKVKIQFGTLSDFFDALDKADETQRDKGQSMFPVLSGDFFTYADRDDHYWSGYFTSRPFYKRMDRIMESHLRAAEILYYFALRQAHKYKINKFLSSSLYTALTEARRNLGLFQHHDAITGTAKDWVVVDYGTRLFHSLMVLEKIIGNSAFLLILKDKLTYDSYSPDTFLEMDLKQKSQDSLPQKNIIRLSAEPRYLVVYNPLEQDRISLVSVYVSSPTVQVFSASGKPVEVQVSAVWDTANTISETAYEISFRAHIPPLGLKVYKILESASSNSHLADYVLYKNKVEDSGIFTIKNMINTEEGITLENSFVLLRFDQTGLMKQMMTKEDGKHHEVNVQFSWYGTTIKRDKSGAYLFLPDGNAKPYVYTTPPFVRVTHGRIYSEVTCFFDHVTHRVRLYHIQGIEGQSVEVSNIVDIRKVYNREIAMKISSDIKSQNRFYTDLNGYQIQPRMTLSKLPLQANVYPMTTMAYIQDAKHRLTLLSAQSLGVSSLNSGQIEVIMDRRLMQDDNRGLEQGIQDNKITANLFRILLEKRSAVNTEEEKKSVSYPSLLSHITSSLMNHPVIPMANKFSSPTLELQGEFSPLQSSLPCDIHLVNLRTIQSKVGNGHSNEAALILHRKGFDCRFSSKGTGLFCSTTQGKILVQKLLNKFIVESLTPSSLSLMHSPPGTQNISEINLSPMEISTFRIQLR
T14 sequence (P07948 whole entry): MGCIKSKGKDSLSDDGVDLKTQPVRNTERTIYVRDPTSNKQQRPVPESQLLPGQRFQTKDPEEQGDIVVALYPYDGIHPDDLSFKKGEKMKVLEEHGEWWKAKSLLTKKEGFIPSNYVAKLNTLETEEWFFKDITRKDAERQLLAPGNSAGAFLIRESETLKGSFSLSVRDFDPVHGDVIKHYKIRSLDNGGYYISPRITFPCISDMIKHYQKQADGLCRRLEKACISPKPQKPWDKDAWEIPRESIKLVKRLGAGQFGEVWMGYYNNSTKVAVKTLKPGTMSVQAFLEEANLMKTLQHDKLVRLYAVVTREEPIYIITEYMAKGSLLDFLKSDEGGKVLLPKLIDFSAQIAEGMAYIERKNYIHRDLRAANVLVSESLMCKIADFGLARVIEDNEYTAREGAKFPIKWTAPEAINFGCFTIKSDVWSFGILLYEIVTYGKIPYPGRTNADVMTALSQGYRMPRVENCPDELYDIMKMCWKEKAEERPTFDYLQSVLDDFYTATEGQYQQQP
T7 sequence (O75600 22-419): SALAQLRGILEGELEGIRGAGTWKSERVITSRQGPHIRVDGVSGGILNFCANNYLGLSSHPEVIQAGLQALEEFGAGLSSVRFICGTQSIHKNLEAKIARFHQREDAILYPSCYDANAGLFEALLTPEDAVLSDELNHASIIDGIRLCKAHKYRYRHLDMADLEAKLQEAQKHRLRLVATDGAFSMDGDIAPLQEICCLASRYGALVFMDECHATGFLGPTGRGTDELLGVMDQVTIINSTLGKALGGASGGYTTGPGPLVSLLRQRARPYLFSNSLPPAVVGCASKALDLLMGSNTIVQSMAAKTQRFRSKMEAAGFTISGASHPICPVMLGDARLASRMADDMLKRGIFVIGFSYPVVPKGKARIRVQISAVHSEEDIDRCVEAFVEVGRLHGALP
T22 sequence (P50613 2-346 limits assumed): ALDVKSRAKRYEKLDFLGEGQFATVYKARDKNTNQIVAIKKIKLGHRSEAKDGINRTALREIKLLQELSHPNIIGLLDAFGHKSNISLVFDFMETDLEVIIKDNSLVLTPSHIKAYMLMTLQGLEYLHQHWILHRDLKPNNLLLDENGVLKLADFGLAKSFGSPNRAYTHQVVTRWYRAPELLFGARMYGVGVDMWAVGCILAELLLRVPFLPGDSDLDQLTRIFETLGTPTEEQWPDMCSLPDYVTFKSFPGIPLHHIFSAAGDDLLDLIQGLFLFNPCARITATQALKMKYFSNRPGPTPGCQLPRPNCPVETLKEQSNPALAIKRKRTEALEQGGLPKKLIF
T22 sequence (P51946 whole entry partner): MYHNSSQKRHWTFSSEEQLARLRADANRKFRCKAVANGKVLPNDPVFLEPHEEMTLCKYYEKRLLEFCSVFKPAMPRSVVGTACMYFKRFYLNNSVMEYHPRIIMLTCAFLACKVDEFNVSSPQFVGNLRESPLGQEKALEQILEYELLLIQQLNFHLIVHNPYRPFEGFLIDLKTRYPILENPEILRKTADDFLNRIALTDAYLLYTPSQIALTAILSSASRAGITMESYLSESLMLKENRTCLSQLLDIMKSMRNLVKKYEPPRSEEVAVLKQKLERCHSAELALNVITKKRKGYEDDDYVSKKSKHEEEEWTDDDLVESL
T22 sequence (P51948 whole entry partner): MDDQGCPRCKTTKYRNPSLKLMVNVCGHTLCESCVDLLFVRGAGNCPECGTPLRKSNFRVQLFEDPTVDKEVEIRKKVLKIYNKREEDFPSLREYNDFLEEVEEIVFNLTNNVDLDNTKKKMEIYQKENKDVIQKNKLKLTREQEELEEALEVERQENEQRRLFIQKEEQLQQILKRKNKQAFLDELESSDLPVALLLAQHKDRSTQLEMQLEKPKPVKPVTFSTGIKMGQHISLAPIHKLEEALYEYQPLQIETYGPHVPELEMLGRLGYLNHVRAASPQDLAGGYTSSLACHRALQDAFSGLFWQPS

CN1CCN(c2ccc(Nc3ncc4cc(C#N)c(=O)n(C5CCCC5)c4n3)cc2)CC1 [Compound 1, 8-cyclopentyl-2-((4-(4-methylpiperazin-1-yl)phenyl)amino)-7-oxo-7,8-dihydropyrido[2,3-d]pyrimidine-6-carbonitrile]
Destabilization: CHEK1 | LYN | MAP2K5 | CDK7 | SMAD1
Stabilization: all other assays above
